Laboratory results reported in US20110275709A1, “TELLURIUM-CONTAINING COMPOUNDS FOR AFFECTING MALE'S FERTILITY FOLLOWING CHEMOTHERAPY AND/OR RADIOTHERAPY” (BIOMAS LTD., priority 2009, published 2011).
“Also recorded” adds a separate entry of the source. Read-outs that look alike come from different tables or passages of the source. Marks after values point to notes of the source that are not given here.

What was measured:
testicular cells = test: Analysis of testicular damage by DNA flow cytometry (procarbazine); assay type: in vivo; settings: PCB single dose 200 mg/kg; propidium iodide flow cytometry; 5 mice per group; FIG. 6
Experimental: Quantification of DNA content in testicular cell populations by propidium iodide staining followed by flow cytometry is an objective, rapid, and robust method for the analysis spermatogenic damage. The method provides quantitative values for evaluating the changes in the proportion in the number of 1N (mature and immature haploid), 2N (diploid), and 4N (tetraploid) cells in the testis. The method was performed as previously described (Malkov at al., 1998). Briefly, testes were dissected, decapsulated, and the contents of the testes were transferred into a tube containing 5 ml ice-cold separation medium. Then, a collagenase solution was added and incubation was carried out for 5 minutes at 37° C. under vigorous shaking. The seminiferous cords were allowed to sediment to the bottom of the tube while being incubated on ice. The seminiferous cords were washed twice in 10 ml separation medium, re-suspended in separation medium containing 2.5 mg/ml trypsin and 1U/ml DNase I, incubated for 2 minutes at 37° C., and transferred to ice. Using a Pasteur pipette, the seminiferous cords was disintegrated into single cells and were then filtered through a […] nylon mesh, washed twice with separation medium (centrifugation at 200-300 g), and counted. For FACS analysis, testicular cells were brought to a concentration of 2-3×10^6 cells/ml in separation medium and diluted 1:1 with propidium iodide solution (10 mM Tris pH 8, 1 mM NaCl, 0.1% Nonidet P-40, 0.7 mg/ml Rnase A, and 0.05 mg/ml propidium iodide). Cells were analyzed by a Becton-Dickinson (San Francisco, Calif.) FACSort instrument, equipped with an argon laser, within 2 hours from staining. Excitation was at 488 nm and emission at 585 nm. The parameters measured for each cell were forward scatter (FSC-H), side scatter (SSC-H), and total fluorescence emitted from the cell (FL2-A).
(§1) Each group contained 5 mice.

Balb/c male mice [1] = test: Evaluation of male fertility (procarbazine); assay type: in vivo; settings: females mated with treated males, PCB single dose 200 mg/kg
Experimental: (§2) Fertility assays were performed on the “chemotherapy only” group, “chemotherapy+AS101” group, and control (PBS) group. Each male was placed with three young virgin females, aged 6 weeks. These females were examined daily for vaginal plugs. Once mating was documented, females were separated, and the pregnancies allowed to progress. […] The number of pregnant females and litter size was noted.
Each group contained 5 male mice.

Balb/c male mice [2] = test: Histological evaluation of testicular damage (procarbazine); assay type: in vivo; settings: three weekly injections of 200 mg/kg PCB; 5 mice per group; FIGS. 2A-2C
Experimental: (§3) The removed testes were pierced with a needle and fixed in Bouin's fixative. After 24 hours, testes were washed three times and maintained in 70% ethanol. Samples were then embedded in paraffin and sectioned. Tissue sections (5 μm) were then stained using hematoxylin/eosin and examined randomly under a light microscope (AX70, Olympus, Tokyo, Japan) under ×100 magnification.
(§4) The administration protocols for the four groups are depicted in FIG. 1.
as §1

Balb/c male mice [3] = test: Effect of treatments on testicular weight (procarbazine-induced testicular damage); assay type: in vivo; settings: AS101 10 μg/mouse ip every other day, FIG. 3
Text: Inbred Balb/c male mice, aged 5-6 weeks, were used. To ensure the fertility of the mice, each mouse was placed with two young healthy females.
as §4
Weights were normalized to the weight of the mouse. Each group contained 10 mice.

Balb/c male mice [4] = assay type: in vivo; settings: Cy 200 mg/kg ip weekly for 5 weeks, AS101 10 μg/mouse ip every other day; for testicular histology (seminiferous tubules, cross sections): FIGS. 7A-7D
Experimental: as §3
(§5) Ten mice were injected intraperitoneally (ip) with 200 mg/kg of cyclophosphamide (Cy) once a week for a period of 5 weeks (Cy group).
(§6) Another ten mice (Cy+AS101 group) were co-treated with Cy as described for the Cy group and with i.p. injections of AS101 at a dosage of 10 μg/mouse every other day, starting 1 week before the first Cy injection and continuing during the 5 weeks of Cy treatment.
(§7) An additional group of ten mice were injected with PBS only (PBS group), and another ten mice were treated with i.p. injections of AS101 at a dosage of 10 μg/mouse every other day (AS101 group), as described for the Cy+AS101 group. The animals from all groups were sacrificed 5 weeks after the last injection by cervical dislocation, and body weights were determined; thereafter, epididymides and testes were quickly dissected out, weighed and fixed.

Balb/c male mice [5] = settings: Cy 200 mg/kg ip once a week for 5 weeks; for Body weight / Epididymis weight / Epididymis weight (normalized to body weight) / Testes weight / Testes weight (normalized to body weight) / Sperm concentration: AS101 10 μg/mouse ip every other day; for Body weight / Epididymis weight / Epididymis weight (normalized to body weight) / Testes weight / Testes weight (normalized to body weight): sacrificed 5 weeks after last injection; for Sperm concentration: epididymal sperm
Experimental: In order to recover the motile epididymal spermatozoa, the two caudal epididymides were placed in M2 medium (Sigma), minced with fine scissors and incubated at 37° C. in an atmosphere of 95% air and 5% CO2 for 15 minutes prior to careful removal of all medium. Samples were then diluted to a final volume of 1 ml in M2. The concentration of sperm cells in the medium was then evaluated using a hemocytometer, and the samples were frozen at −80° C.
as §5, §6, §7
Body weight, testes weight, testes weight normalized to body weight, epididymis weight, epididymis weight normalized to body weight, and sperm concentration were determined for the mice of each of the 4 treatment groups.

sperm nuclear DNA = assay type: in vivo, mice; settings: Cy 200 mg/kg ip weekly for 5 weeks; AS101 10 μg/mouse ip every other day; FIG. 9
Experimental: as §5, §6, §7

[6] = tested on: phosphorylated GSK-3β (pGSK-3β); assay type: in vivo, mice; settings: of the PBS group; testes homogenate, densitometry; FIGS. 13A-B
Experimental: (§8) Frozen testes were homogenized in 1 ml of RIPA lysis buffer containing protease inhibitor cocktail and phosphatase inhibitor cocktail II. The tissue was then pulverized with a Dounce homogenizer and the homogenate subjected to centrifugation at 14,000 g for 15 minutes. The supernatant was collected and used for protein determination using Bradford reagent. Tissue samples were denatured in reducing buffer (62 mM Tris [pH 6.8], 10% glycerol, 2% sodium dodecyl sulfate [SDS], 5% f3-mercaptoethanol and 0.003% bromophenol blue) and separated by electrophoresis on an SDS (12%) polyacrylamide gel at 35 mA. The separated proteins were transferred onto a nitrocellulose membrane using the transfer buffer (39 mM glycine, 48 mM Tris [pH 8.3] and 20% methanol) at 20 V at 4° C. overnight. The membranes were stained with Ponceau S (0.005% in 1% acetic acid) to confirm equal amounts of protein, and blocked with 5% non-fat dry milk in Tris buffered saline with 0.1% TWEEN (TBS-T) for 1 hour at room temperature, and washed three times for 10 minutes each time in TBS-T. The following primary rabbit monoclonal antibodies were used: anti-human phospho-Akt1/2/3, anti-human GSK-3β and anti-human phospho-GSK-3β. Mouse antibody against chicken α-tubulin was used in order to confirm that the protein load was similar in all lanes. Membranes were incubated with the appropriate diluted antibody overnight at 4° C. After being washed three times for 10 minutes each time in TBS-T, the membranes were incubated for 1 hour at room temperature with peroxidase-conjugated goat anti-rabbit or goat anti-mouse IgG antibody. After washing, the membranes were analyzed by an enhanced chemiluminescence system according to the manufacturer's protocol (Pierce). Densitometry was conducted in order to quantify differences in band intensity using the Image J image-processing program (NIH, Bethesda, Md., USA). Results were normalized by comparison to the values in the PBS control group in each membrane.
(§9) Phosphorylation of Akt and GSK-3β was determined using gel electrophoresis and Western blotting, as described in the Materials and Methods section.

[7] = tested on: phosphorylated Akt (pAkt); assay type: in vivo, mice; settings: relative to the PBS group; testes homogenate, densitometry; FIGS. 12A-B
Experimental: as §8, §9

Balb/c male mice [8] = assay type: in vivo; settings: females mated with treated males, Cy 200 mg/kg ip weekly for 5 weeks
Experimental: as §2, §5, §6, §7

[9] = tested on: tumor models in mice and humans; settings: cited from earlier work
mice = settings: cited from earlier work
cancer patients = settings: AS101 in combination with chemotherapy; cited from earlier work

Compound: CNNCc1ccc(C(=O)NC(C)C)cc1 [PCB, Procarbazine]
- percentage of cells with 1N (haploid) DNA in the testes (testicular cells): 24.2±4.0%
- percentage of cells with 2N (diploid) DNA in the testes (testicular cells): 54.9±4.2%
- percentage of cells with 4N (tetraploid) DNA in the testes (testicular cells): 4.7±0.4%
- litter size (Balb/c male mice [1]; 5 male mice per group, FIG. 4): 1.4±2.9
- percentage of impregnated females (Balb/c male mice [1]; FIG. 5): 20%
- testicular histology (hematoxylin/eosin sections) (Balb/c male mice [2]): empty and atrophic seminiferous tubules
- average testicular weight (Balb/c male mice [3]; PCB single dose 200 mg/kg, normalized to mouse weight, 10 mice per group): 1.9±0.2 mg per grams body weight

Compound: O=P1(N(CCCl)CCCl)NCCCO1 (stereo not drawn) [Cy, cyclophosphamide]
- average percentage of damaged seminiferous tubules (Balb/c male mice [4]; FIG. 8): 76.0±10.8%
- testicular histology (seminiferous tubules, cross sections) (Balb/c male mice [4]): empty and atrophic seminiferous tubules
- deaths (Balb/c male mice [5]): no deaths occurred
- Body weight (Balb/c male mice [5]): 22.8 ± 2.1 gram
- Epididymis weight (Balb/c male mice [5]): 25.1 ± 2.9 mg
- Epididymis weight (normalized to body weight) (Balb/c male mice [5]): 1.1 ± 0.1 mg/gram body weight
- Testes weight (Balb/c male mice [5]): 46.3 ± 8.7 mg
- Testes weight (normalized to body weight) (Balb/c male mice [5]): 1.98 ± 0.16 mg/gram body weight
- Sperm concentration (Balb/c male mice [5]): 8.7 ± 1.6* 10^6 cells/ml
- percentage of sperm cells with abnormal chromatin structure (% DFI) (sperm nuclear DNA): 44.7±1.0%
- level of phosphorylated GSK-3β (pGSK-3β) [6]: 36.4±12.5%
- average level of phosphorylated Akt (pAkt) [7]: 55.3±25.6%
- percentage of impregnated females (Balb/c male mice [8]; FIG. 10): 20.0±4.2%
- litter size of females which did achieve pregnancy (Balb/c male mice [8]; FIG. 11): 4.3±1.4

Compound: Cl[TeH]1(Cl)(Cl)OCCO1.N [AS101, ammonium trichloro(dioxyethylene-O,O′)tellurate]
- testicular histology (seminiferous tubules, cross sections) (Balb/c male mice [4]): normal cellular content; also recorded: no effect on testicular histology
- Body weight (Balb/c male mice [5]): 26.2 ± 1.0 gram
- Epididymis weight (Balb/c male mice [5]): 34.2 ± 4.2 mg
- Epididymis weight (normalized to body weight) (Balb/c male mice [5]): 1.3 ± 0.1 mg/gram body weight
- Testes weight (Balb/c male mice [5]): 105.7 ± 14.7 mg
- Testes weight (normalized to body weight) (Balb/c male mice [5]): 4.3 ± 0.3 mg/gram body weight
- Sperm concentration (Balb/c male mice [5]): 22.5 ± 3.8 10^6 cells/ml
- combination effect with Cy ([9]; treatment of tumor-bearing mice): synergistic effect with Cy
- anti-tumoral effect ([9]; variety of tumor models in mice and humans): clear anti-tumoral effect
- protection from hematopoietic damage (mice; lethal and sublethal doses of chemotherapeutic drugs, including cyclophosphamide): protect mice from hematopoietic damage
- survival of mice (mice; mice treated with various cytotoxic drugs or radiation): increase the survival of mice
- level of phosphorylated GSK-3β (pGSK-3β) [6]: 130.3±16.9%
- average level of phosphorylated Akt (pAkt) [7]: 175.3±28.4%
- severity of neutropenia, thrombocytopenia and alopecia that accompany chemotherapy (cancer patients): significant reduction in the severity of neutropenia, thrombocytopenia, and alopecia
- effect of AS101 alone on testicular weight (Balb/c male mice [3]; no PCB): no significant effect
